Measured values reported in US20260027243A1, “AMPHIPHILIC COMPOUNDS FOR ATTENUATING NEUROTOXICITY OF AMYLOID-beta OLIGOMERS AND DIAGNOSTIC METHODS” (THE BOARD OF TRUSTEES OF THE UNIVERSITY OF ILLINOIS, priority 2022, published 2026).

Columns and labels:
[1] = system: human neuroblastoma cells (SH-SY5Y); test: Cytotoxicity of DCM compounds in SH-SY5Y cells; format: cell-based; conditions: at 2 μM
Text: Fluorescence Imaging of 5×FAD Mouse Brain Sections and blood-brain barrier (BBB) permeability. To confirm the developed compounds can also bind to native Aβ aggregates, we performed fluorescence imaging studies and colocalization experiments on 5×FAD mouse brain sections. […] This further supports that the compounds are selective and can bind to native soluble Aβ oligomers. Before investigating the blood-brain barrier (BBB) permeability of the developed compounds, their neurotoxicity was measured first (FIG. 12). […] DCM-OH-2 leads to less than 80% cell viability even at 2 μM, which is probably due to its poor solubility. Nevertheless, the DCM-OH-2-DT was chosen as the candidate to test the blood-brain barrier (BBB) permeability. 12-month-old AD mice were treated with compound DCM-OH-2-DT (0.1 mg/Kg) for 10 days via intraperitoneal injection. At the end of treatment, mice brains were harvested and colocalization experiments were performed on the mice brain sections.

[2] = Log D by octanol-PBS partition; format: physicochemical; conditions: DCM compounds
Procedure: Log D measurements. The Log D value was measured following a published procedure using slight modifications. In general, compounds in 0.5 mL octanol was subjected to partition with 0.5 mL octanol-saturated PBS. The whole mixture was stirred vigorously for 5 min, and centrifuged at 2,000 rpm for 5 min. The top octanol layer was separated for later fluorescence measurement. The remaining PBS layer was partitioned with 0.5 mL PBS-saturated octanol, and the second top octanol layer was then separated after vigorous stirring and centrifuging at 2,000 rpm for another 5 min. The two octanol layers' fluorescence spectra were recorded. The log D value was calculated by the fluorescence intensity ratio at the compounds' emission wavelength for the above two octanol extractions.

[3] = target: T1, Aβ42 fibrils (Homo sapiens, UniProt P05067); test: Fluorescence saturation binding assay with Aβ42 fibrils; conditions: read-out: Kd value to Aβ42 fibrils
T1 construct: commercial Aβ42 monomer powder (from GL biochem); purchased GL biochem
T1 sequence (P05067 672-713 limits assumed): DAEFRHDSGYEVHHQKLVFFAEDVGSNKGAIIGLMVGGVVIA
Procedure: Preparation of the Aβ42 Fibrils and Aβ42 Oligomers. Aβ42 fibrils: 1 mg of commercial Aβ42 monomer powder (from GL biochem) was dissolved in 1 mL 1,1,1,3,3,3-hexafluoro-2-propanol (HFIP) at room temperature and incubated for 1 h. The resulting solution was divided equally into two Eppendorf tubes. The solution in each Eppendorf tube containing 0.5 mg Aβ42 monomer was then evaporated overnight and dried by vacuum centrifuge to generate monomeric films. […] Aβ42 fibrils solution was prepared by dissolving the 0.5 mg monomeric films in 1.1 mL PBS buffer (with final DMSO concentration less than 1%) and stirring at 37° C. for 3 days.
(§1) In Vitro Saturation Binding Studies with Aβ42 Fibrils and Aβ42 Oligomers. To a solution of increasing concentrations of compounds, a fixed concentration of the generated aggregated Aβ42 fibrils or Aβ42 oligomers solutions (5 to 15 NM) was added to yield a total volume of 100 μL. Nonspecific binding was determined […]. The mixture was incubated for 15 min at room temperature. All fluorescence data were obtained on a SpectraMax M2e plate reader (Molecular Devices). The fluorescent intensity was measured at the corresponding emission wavelength of each compound, and the Kd binding curves were generated by GraphPad Prism 8.0 with one site-specific binding model. Equation: Y=Bmax*X/(Kd+X).

[4] = target: T2, Aβ42 oligomers (Homo sapiens, UniProt P05067); test: Fluorescence saturation binding assay with Aβ42 oligomers; conditions: read-out: Kd value to Aβ42 oligomers
T2 construct: commercial Aβ42 monomer powder (from GL biochem); purchased GL biochem
T2 sequence (P05067 672-713 limits assumed): as above
Procedure: Aβ42 oligomers: The 0.5 mg monomeric films were dissolved in 1.1 mL PBS buffer (with final DMSO concentration less than 1%) and incubated at 4° C. overnight. The resulting solution was then centrifuged at 3000 rpm for 15 mins to remove the insoluble aggregates. The clear supernatant was then used for the following experiments. Aβ42 oligomers concentration was checked by measuring the absorbance of the supernatant at 280 nm.
as §1

With `N#CC(C#N)=C1C=C(/C=C/C=C/c2ccc(O)cc2)Oc2ccccc21` [DCM-OH-2] the cell viability [1] was “less than 80%”, the logD [2] was 0.96 ± 0.07 and the Kd [3] was 80 nM. The Kd [4] was 120 nM.
